Assay results reported in patent publication US5447926A, “Quinolone carboxylic acid derivatives” (SS Pharmaceutical Co., Ltd., priority 1990, dated 1995).
Converted amounts (≈) assume the structure as drawn.

Assays:
[1] = tested on: Salmonella typhi TD; type: cell-based; details: Salmonella enterica, 24 h
[2] = tested on: Shigella flexneri 2b; type: cell-based; details: 24 h
[3] = tested on: Klebsiella pneumonias IFO 13541; type: cell-based; details: IFO13541, 24 h, Gram-negative, Mueller Hinton Medium, 10^6 /ml, 37° C.
[4] = tested on: Bacillus subtilis ATCC 6633; details: ATCC6633, 24 h
[5] = tested on: Staphylococcus aureus FDA 209P; details: FDA209P, 24 h
[6] = tested on: Staphylococcus aureus Terajima; details: 24 h
[7] = tested on: Staphylococcus aureus Smith; details: 24 h
[8] = tested on: Staphylococcus epidermidis ATCC 12228; details: ATCC12228, 24 h
[9] = tested on: Sarcina lutea ATCC 9341; details: Micrococcus luteus, ATCC9341, 24 h
[10] = tested on: Strepto occus faecalis IFO 12964; details: 24 h
[11] = tested on: Micrococcus lysodeikticus IFO 3333; details: Micrococcus luteus, IFO3333, 24 h
[12] = tested on: Escherichia coli 0-1; details: Escherichia coli, 01, 24 h
[13] = tested on: Escherichia coli H-12; details: H12, 24 h
[14] = tested on: Pseudomonas aeruginosa IFO 13736; details: IFO13736, 24 h
[15] = tested on: Pseudomonas aeruginosa P2; details: P2, 24 h
[16] = tested on: Pseudomonas aeruginosa IFO 12582; details: IFO12582, 24 h
[17] = tested on: Klebsiella pneumonias ATCC 10031; details: ATCC10031, 24 h
[18] = tested on: Proteus vulgaris OXK; details: 24 h
[19] = tested on: Proteus rettgeri; details: Providencia rettgeri, 24 h
[20] = tested on: Serratia marcescens NHL; details: 24 h
[21] = tested on: M.R. Staphylococcus aureus 395; details: 24 h
[22] = tested on: M.R. Staphylococcus aureus 415; details: 24 h
[23] = tested on: M.R. Staphylococcus aureus 419; details: 24 h
[24] = tested on: M.R. Staphylococcus aureus 420; details: 24 h
[25] = tested on: M.R. Staphylococcus aureus 421; details: 24 h

For `CC1COc2c(N3CCN(C)CC3)c(F)cc3c(=O)c(C(=O)O)cn1c23` (stereo not drawn) [Ofloxacin, reference compound], the MIC [1] was 0.024 µg/mL (≈ 0.0664 µM), the MIC [2] was 0.012 µg/mL (≈ 0.0332 µM) and the MIC [3] was 0.024 µg/mL (≈ 0.0664 µM). For the same compound, the MIC [4] was 0.098 µg/mL (≈ 0.271 µM), the MIC [5] was 0.195 µg/mL (≈ 0.54 µM) and the MIC [6] was 0.78 µg/mL (≈ 2.16 µM). For the same compound, the MIC [7] was 0.39 µg/mL (≈ 1.08 µM), the MIC [8] was 0.78 µg/mL (≈ 2.16 µM) and the MIC [9] was 3.12 µg/mL (≈ 8.63 µM). For the same compound, the MIC [10] was 1.56 µg/mL (≈ 4.32 µM), the MIC [11] was 1.56 µg/mL (≈ 4.32 µM) and the MIC [12] was 0.098 µg/mL (≈ 0.271 µM). It also gave an MIC [13] of 0.098 µg/mL (≈ 0.271 µM), an MIC [14] of 1.56 µg/mL (≈ 4.32 µM) and an MIC [15] of 0.78 µg/mL (≈ 2.16 µM). For the same compound, the MIC [16] was 3.12 µg/mL (≈ 8.63 µM), the MIC [17] was 0.024 µg/mL (≈ 0.0664 µM) and the MIC [18] was 0.049 µg/mL (≈ 0.136 µM). For the same compound, the MIC [19] was 0.098 µg/mL (≈ 0.271 µM), the MIC [20] was 0.049 µg/mL (≈ 0.136 µM) and the MIC [21] was 0.39 µg/mL (≈ 1.08 µM). It also gave an MIC [22] of 0.39 µg/mL (≈ 1.08 µM), an MIC [23] of 0.39 µg/mL (≈ 1.08 µM) and an MIC [24] of 0.39 µg/mL (≈ 1.08 µM). The MIC [25] was 0.39 µg/mL (≈ 1.08 µM).

In the case of `O=C1CCN(c2c(F)cc3c(=O)c(C(=O)O)cn(C4CC4)c3c2Cl)CCN1` [Compound 2, 8-Chloro-1-cyclopropyl-6-fluoro-7-(2,3,4,5,6,7-hexahydro-1H-1,4-diazepin-5-one-1-yl)-4-oxoquinoline-3-carboxylic acid], the MIC [1] is reported as 0.098 µg/mL (≈ 0.249 µM), the MIC [2] is reported as 0.003 µg/mL (≈ 0.00762 µM) and the MIC [3] is reported as 0.098 µg/mL (≈ 0.249 µM). It also gave an MIC [4] of 0.024 µg/mL (≈ 0.0609 µM), an MIC [5] of 0.012 µg/mL (≈ 0.0305 µM) and an MIC [6] of 0.098 µg/mL (≈ 0.249 µM). For the same compound, the MIC [7] was 0.012 µg/mL (≈ 0.0305 µM), the MIC [8] was 0.049 µg/mL (≈ 0.124 µM) and the MIC [9] was 0.195 µg/mL (≈ 0.495 µM). For the same compound, the MIC [10] was 0.195 µg/mL (≈ 0.495 µM), the MIC [11] was 0.049 µg/mL (≈ 0.124 µM) and the MIC [12] was 0.195 µg/mL (≈ 0.495 µM). It also gave an MIC [13] of 0.39 µg/mL (≈ 0.99 µM), an MIC [14] of 6.25 µg/mL (≈ 15.9 µM) and an MIC [15] of 12.5 µg/mL (≈ 31.7 µM). The MIC [16] was 6.25 µg/mL (≈ 15.9 µM), the MIC [17] was 0.012 µg/mL (≈ 0.0305 µM) and the MIC [18] was 0.024 µg/mL (≈ 0.0609 µM). It also gave an MIC [19] of 0.78 µg/mL (≈ 1.98 µM), an MIC [20] of 0.78 µg/mL (≈ 1.98 µM) and an MIC [21] of 0.049 µg/mL (≈ 0.124 µM). The MIC [22] was 0.024 µg/mL (≈ 0.0609 µM), the MIC [23] was 0.024 µg/mL (≈ 0.0609 µM) and the MIC [24] was 0.024 µg/mL (≈ 0.0609 µM). The MIC [25] was 0.024 µg/mL (≈ 0.0609 µM).

With `N[C@@H]1CCCCN(c2c(F)cc3c(=O)c(C(=O)O)cn(C4CC4)c3c2Cl)C1` [Compound 15] the MIC [1] was 0.049 µg/mL (≈ 0.124 µM), the MIC [2] was 0.006 µg/mL (≈ 0.0152 µM) and the MIC [3] was 0.049 µg/mL (≈ 0.124 µM). The MIC [4] was 0.024 µg/mL (≈ 0.0609 µM), the MIC [5] was 0.012 µg/mL (≈ 0.0305 µM) and the MIC [6] was 0.195 µg/mL (≈ 0.495 µM). The MIC [7] was 0.024 µg/mL (≈ 0.0609 µM), the MIC [8] was 0.049 µg/mL (≈ 0.124 µM) and the MIC [9] was 0.098 µg/mL (≈ 0.249 µM). The MIC [10] was 0.195 µg/mL (≈ 0.495 µM), the MIC [11] was 0.195 µg/mL (≈ 0.495 µM) and the MIC [12] was 0.098 µg/mL (≈ 0.249 µM). For the same compound, the MIC [13] was 0.098 µg/mL (≈ 0.249 µM), the MIC [14] was 1.56 µg/mL (≈ 3.96 µM) and the MIC [15] was 1.56 µg/mL (≈ 3.96 µM). For the same compound, the MIC [16] was 0.78 µg/mL (≈ 1.98 µM), the MIC [17] was 0.012 µg/mL (≈ 0.0305 µM) and the MIC [18] was 0.049 µg/mL (≈ 0.124 µM). It also gave an MIC [19] of 0.195 µg/mL (≈ 0.495 µM), an MIC [20] of 0.195 µg/mL (≈ 0.495 µM) and an MIC [21] of 0.049 µg/mL (≈ 0.124 µM). For the same compound, the MIC [22] was 0.024 µg/mL (≈ 0.0609 µM), the MIC [23] was 0.024 µg/mL (≈ 0.0609 µM) and the MIC [24] was 0.049 µg/mL (≈ 0.124 µM). The MIC [25] was 0.049 µg/mL (≈ 0.124 µM).
